Common to all, as to assay type: physicochemical
Data set [1] in a line: B-2: solubility of CoQ10 with GZK2 (HPLC). The conditions noted are these: 12 mg CoQ10 (as complex or alone) in 3 mL purified water, sonicated 1 hour. As for the experimental part:
0 mg, 6.2 mg, 12.5 mg, 25 mg or 50 mg of GZK2 was mixed into 60 mg of CAVAMAX® W8 CoQ10 (containing 12 mg of CoQ10) as a super solubilizer and 3 mL purified water was added. The resulting mixture was then sonicated for 1 hour using an ultrasonic apparatus (Ikeda Scientific Co., Ltd.).
As a comparison, GZK2 was incorporated into 12 mg of CoQ10 as a super solubilizer and the mixture was prepared as described above. The resulting mixture was left to stand and filtered and the resulting solution was analyzed using HPLC.

Data set [2] in a line: B-1: solubility of CoQ10 with NaTC (HPLC). The conditions noted are these: 50 mM MES buffer, 2 hours at 40° C. How it is done:
1450 μL each of a 50 mM 2-morpholinoethanesulfonic acid (MES) buffer solution (containing 300 mM NaCl, 140 mM KSCN and 5 mM CaCl2) or the aforementioned buffer solution into which a super solubilizer (0.42% (w/v) NaTC, 0.83% (w/v) NaTC or 1.66% (w/v) NaTC) was dissolved were added to 57 mg of CAVAMAX® W8 CoQ10 (5 mg water content, 12.14 mg CoQ10 and 40 mg γCD) and sonication was performed for several seconds using an ultrasonic apparatus (Ikeda Scientific Co., Ltd.) and left to stand for 2 hours at 40° C.
As a comparison, 2 mL of 50 mM 2-morpholinoethanesulfonic acid (MES) buffer solution (containing 300 mM NaCl, 140 mM KSCN and 5 mM CaCl2) (in lieu of NaTC) was added to 12.14 mg of CoQ10 (in lieu of CAVAMAX® W8 CoQ10), and the mixture was prepared as described above. The resulting mixture was left to stand and filtered and the resulting solution was analyzed using HPLC.

Data set [3] is described as follows: A-8: solubility of curcumin with Na glycocholate (HPLC). As to conditions: Amount of Na Glycocholate Added 2.0% (w/v); 2 mL water; filtered immediately following mixing.
The nature of data set [4]: A-1 Preparation Method 1: solubility of curcumin with NaTC (HPLC). The conditions noted are these: 50 mM MES buffer, sonicated, 2 hours at 40° C., 0.2 μm filter. How it is done: The mixture was then filtered and the solution obtained was analyzed via HPLC as described above.
The nature of data set [5]: A-5: solubility of curcumin with polysorbate (HPLC). The conditions noted are these: Super Solubilizer: None (comparison); 1.4 mg curcumin in 2 mL ion-exchanged water. As for the experimental part:
This mixture was then sonicated for several seconds using an ultrasonic apparatus (Ikeda Scientific Co., Ltd.) and left to stand for 10 min at 40° C.
(§1) The resulting mixture was left to stand and filtered and the resulting solution was analyzed using HPLC.

Data set [6] is described as follows: A-4: solubility of curcumin with quillaja saponin (HPLC). As to conditions: total 2 mL 10% aqueous ethanol, 1 hour at 40° C. As for the experimental part:
The mixture was then allowed to stand, was filtered and the resulting solution was analyzed using HPLC.

A short description of data set [7]: A-2: solubility of curcumin with GZ (HPLC). As to conditions: 50 mM MES buffer, 2 hours at 40° C.
Data set [8] can be described thus: Follow-up HPLC measurement of curcumin concentration in αCD aqueous solution comparable to Patent Document 2, Table 4. As for the experimental part:
Additionally, given that the maximum value of the concentration of the standard solution which was used as a reference was 100 μg/mL (Patent Document 2, Table 3), the concentration is outside the measurement range of the standard and is likely unreliable.

Data set [9] can be described thus: A-6: solubility of curcumin with methylcellulose (HPLC). As to conditions: Super Solubilizer: None (comparison); 1.4 mg curcumin in 2 mL ion-exchanged water. How it is done:
This mixture was then mixed by inversion.
as §1

The nature of data set [10]: H-1: solubility of CAPE with NaTC (HPLC). As to conditions: 1.4 mg CAPE (as complex or alone) in 5 mL water, sonicated 3 minutes. As for the experimental part:
As a comparison, water or a solution prepared by dissolving a super solubilizer (1.0% (w/v) NaTC) in water was combined with 1.4 mg of CAPE (in lieu of CAPE-γCD complex) and the mixture was prepared as described above. The resulting mixture was left to stand and filtered and the resulting solution was analyzed using HPLC.

Take `COC1=C(OC)C(=O)C(C/C=C(\C)CC/C=C(\C)CC/C=C(\C)CC/C=C(\C)CC/C=C(\C)CC/C=C(\C)CC/C=C(\C)CC/C=C(\C)CC/C=C(\C)CCC=C(C)C)=C(C)C1=O` [CoQ10, coenzyme Q10]: the “CoQ10 Concentration” value was 0.2 µg/mL in data set [1] (Amount of GZK2 Added 0 mg); 3.6 µg/mL in data set [1] (Amount of GZK2 Added 6.2 mg); 9.1 µg/mL in [1] (Amount of GZK2 Added 12.5 mg); 3.9 µg/mL in [1] (Amount of GZK2 Added 25 mg); 3.9 µg/mL in data set [1] (Amount of GZK2 Added 50 mg); 0 µg/mL in data set [2] (NaTC concentration 0% (w/v)). In addition, the “CoQ10 Concentration” value in [2] (NaTC concentration 0.42% (w/v)) was 0 µg/mL; in [2] (NaTC concentration 0.83% (w/v)), 0 µg/mL; in data set [2] (NaTC concentration 1.66% (w/v)), 1.52 µg/mL.

Take `COc1cc(/C=C/C(=O)CC(=O)/C=C/c2ccc(O)c(OC)c2)ccc1O` [Curcumin, curcumin]: the “Curcumin Concentration” value worked out at 12.31 µg/mL in data set [3]; 3.95 µg/mL in data set [4] (NaTC concentration 0% (w/v)); 35.35 µg/mL in data set [4] (NaTC concentration 0.83% (w/v)); 219.2 µg/mL in [4] (NaTC concentration 1.66% (w/v)); 0.01 µg/mL in data set [5]; 0.02 µg/mL in data set [6] (Amount of QS Added 0 μL). Further, the “Curcumin Concentration” value is 16.81 µg/mL in data set [6] (Amount of QS Added 200 μL); 122.96 µg/mL in [6] (Amount of QS Added 1000 μL); 3.95 µg/mL in [7] (GZ Concentration 0% (w/v)); 98.19 µg/mL in data set [7] (GZ Concentration 3.50% (w/v)); 0.01 µg/mL in [9]. For the same compound, the concentration of curcumin came out at 1470 ng/mL in [8] (content of αCD 1%), 3630 ng/mL in data set [8] (content of αCD 2.5%) and 8290 ng/mL in data set [8] (content of αCD 5%).

For the compound `O=C(/C=C/c1ccc(O)c(O)c1)OCCc1ccccc1` [CAPE, caffeic acid phenethyl ester], the “CAPE Concentration” value in data set [10] (NaTC concentration 0% (w/v)) was 16 µg/mL; in data set [10] (NaTC concentration 1.0% (w/v)) it was 155 µg/mL.

For the origin of these results see patent US20130309218A1, “PROCESS FOR PRODUCING AQUEOUS SOLUTION CONTAINING FAT-SOLUBLE SUBSTANCE” (WACKER CHEMIE AG, priority 2011, published 2013).
